Reference: ChEMBL document CHEMBL4715726, “Identification, characterization, kinetics, and molecular docking of flavonoid constituents from Archidendron clypearia (Jack.) Nielsen leaves and twigs” (Bioorg Med Chem, 2016)

Key:
[1] = biological target: T1, Bifunctional epoxide hydrolase 2 (Homo sapiens) (UniProt P34913); test: Inhibition of sEH (unknown origin) assessed as reduction in 6-methoxy-2-naphthaldehyde formation at 100 uM using PHOME as substrate measured after 40 mins by fluorescence photometry analysis relative to control
T1 sequence (whole entry): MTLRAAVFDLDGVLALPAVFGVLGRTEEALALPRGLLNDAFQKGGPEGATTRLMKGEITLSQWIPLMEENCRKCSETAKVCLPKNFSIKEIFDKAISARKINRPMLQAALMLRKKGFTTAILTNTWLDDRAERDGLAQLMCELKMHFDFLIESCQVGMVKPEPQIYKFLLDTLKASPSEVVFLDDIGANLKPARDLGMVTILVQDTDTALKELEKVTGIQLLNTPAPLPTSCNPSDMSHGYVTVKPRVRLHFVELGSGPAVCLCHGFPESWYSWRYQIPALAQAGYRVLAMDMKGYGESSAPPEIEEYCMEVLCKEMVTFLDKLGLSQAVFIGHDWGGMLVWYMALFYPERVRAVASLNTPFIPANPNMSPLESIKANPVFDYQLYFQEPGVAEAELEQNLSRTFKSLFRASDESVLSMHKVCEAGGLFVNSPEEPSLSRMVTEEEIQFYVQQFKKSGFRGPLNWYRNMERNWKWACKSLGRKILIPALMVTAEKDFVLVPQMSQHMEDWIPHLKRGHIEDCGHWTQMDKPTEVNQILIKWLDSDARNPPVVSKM

[2] = biological target: T2, Bifunctional epoxide hydrolase 2 (Homo sapiens, UniProt P34913); test: Inhibition of sEH (unknown origin) assessed as reduction in 6-methoxy-2-naphthaldehyde formation using PHOME as substrate measured after 40 mins by fluorescence photometry analysis
T2 sequence (P34913 whole entry): T1 sequence (whole entry)

[3] = biological target: T2, Bifunctional epoxide hydrolase 2; test: Mixed type inhibition of sEH (unknown origin) using varying levels of PHOME as substrate by Dixon plot analysis
[4] = biological target: T2, Bifunctional epoxide hydrolase 2; test: Non competitive inhibition of sEH (unknown origin) using varying levels of PHOME as substrate by Dixon plot analysis
[5] = biological target: T1, Bifunctional epoxide hydrolase 2 (Homo sapiens); conditions: dose 25.0 nM, time 40.0 min
[6] = biological target: T2, Bifunctional epoxide hydrolase 2; test: Competitive inhibition of sEH (unknown origin) using varying levels of PHOME as substrate by Dixon plot analysis

Row | SMILES | inhibition [1] | IC50 [2] | other results
1 | COc1cc([C@@H](O)CC(=O)c2c(O)cc(O[C@@H]3O[C@H](CO)[C@@H](O)[C@H](O)[C@H]3O[C@@H]3OC[C@](O)(CO)[C@H]3O)cc2O)ccc1O | 50.9% |  | 
2 | COc1cc(O)c2c(c1)O[C@H](c1cc(O)c(O[C@@H]3O[C@H](CO)[C@@H](O)[C@H](O)[C@H]3O[C@@H]3OC[C@](O)(CO)[C@H]3O)c(OC)c1)CC2=O | 53.5% |  | 
3 | COc1cc(O)c2c(=O)cc(-c3ccc(O[C@@H]4O[C@H](CO)[C@@H](O)[C@H](O)[C@H]4O)c(OC)c3)oc2c1 | 98.5% | 17.5 µM | Ki [3]: 37.1 µM
4 | COc1cc(O)c2c(=O)c(OC)c(-c3ccc(O[C@@H]4O[C@H](CO)[C@@H](O)[C@H](O)[C@H]4O[C@@H]4OC[C@](O)(CO)[C@H]4O)c(OC)c3)oc2c1 | 90.8% | 12 µM | Ki [4]: 18.2 µM
5 | COc1cc(O)c2c(=O)c(O)c(-c3ccc(O[C@@H]4O[C@H](CO)[C@@H](O)[C@H](O)[C@H]4O[C@@H]4OC[C@](O)(CO)[C@H]4O)c(OC)c3)oc2c1 | 64.1% |  | 
6 | O=C(Oc1cc(O)c2c(c1)O[C@H](c1cc(O)c(O)c(O)c1)CC2)c1cc(O)c(O)c(O)c1 | 90.8% | 10 µM | Ki [3]: 45.5 µM
7 | COc1cc(O)c(C(=O)/C=C/c2ccc(O)c(OC)c2)c(O[C@@H]2O[C@H](CO)[C@@H](O)[C@H](O)[C@H]2O)c1 | 56.3% |  | 
8 | CCCCOC(=O)CCCCCCCCCCCNC(=O)NC12CC3CC(CC(C3)C1)C2 |  |  | inhibition [5]: 58.9%
9 | COc1cc(O)c2c(=O)c(O[C@@H]3O[C@H](CO)[C@@H](O)[C@H](O)[C@H]3O)c(-c3ccc(O[C@@H]4O[C@H](CO)[C@@H](O)[C@H](O)[C@H]4O)c(OC)c3)oc2c1 | 95.8% | 19.8 µM | Ki [6]: 24.6 µM
10 | COc1cc([C@@H](O)CC(=O)c2c(O)cc(O[C@@H]3O[C@H](CO)[C@@H](O)[C@H](O)[C@H]3O)cc2O)ccc1O | 33.9% |  | 
11 | O=C(Oc1c(-c2ccc(O)c(O)c2)oc2cc(O)cc(O)c2c1=O)c1cc(O)c(O)c(O)c1 | 91.2% | 11.5 µM | Ki [4]: 21.5 µM
12 | C[C@@H]1O[C@@H](Oc2c(-c3ccc(O)c(O)c3)oc3cc(O)cc(O)c3c2=O)[C@H](O)[C@H](O)[C@H]1O [QUERCITRIN] | 78.5% | 11.8 µM | Ki [4]: 39.6 µM
13 | COc1cc(-c2oc3cc(O)cc(O)c3c(=O)c2O[C@@H]2O[C@H](CO)[C@@H](O)[C@H](O)[C@H]2O)ccc1O | 86.5% | 30.1 µM | Ki [3]: 29.7 µM
14 | COc1cc(O)c2c(=O)cc(-c3ccc(O[C@@H]4O[C@H](CO)[C@@H](O)[C@H](O)[C@H]4O[C@@H]4OC[C@](O)(CO)[C@H]4O)c(OC)c3)oc2c1 | 66.1% |  | 
